This is an account of results in PMC5343011, “Phenol-Soluble Modulin α Peptide Toxins from Aggressive Staphylococcus aureus Induce Rapid Formation of Neutrophil Extracellular Traps through a Reactive Oxygen Species-Independent Pathway” (Frontiers in Immunology, 2017).

Data set [1] concerns neutrophils. As to the kind of experiment: Sytox Green DNA release / NET formation. The format is cell-based, human. On the procedure:
Peripheral blood neutrophils were isolated from 1-day-old buffy coats from healthy blood donors or from peripheral blood from patients and healthy controls. Neutrophil separation was performed as first described by Boyum ([23]). Briefly, after dextran, sedimentation at 1 × g the suspension was centrifuged on Ficoll-Paque, and the remaining erythrocytes were lysed by hypotonic treatment. The neutrophils were then washed in Krebs Ringer phosphate buffer (KRG) and finally resuspended in KRG supplemented with Ca^2+ (1 mM) and kept on melting ice until used. Buffy coats were obtained from the Sahlgrenska University Hospital blood bank after deidentification, and according to the Swedish legislation section code 4§ 3 p SFS2003:460, no informed consent is needed. Peripheral blood from one MPO-deficient individual, one patient with Papillon-Lefèvre syndrome, and healthy controls were obtained after written informed consent, and the study was approved by the Regional Ethical Review Board in Gothenburg, Sweden.
Cells (5 × 10^4 cells/well) in RPMI (without phenol red) and the Sytox Green DNA stain (1.25 μM; Molecular Probes) were added to black 96-well plates and incubated at 37°C and 5% CO2 ([5]). Inhibitors, PBP10 (CASLO Laboratory) or diphenyleneiodonium chloride (DPI; Sigma-Aldrich), were preincubated with cells for 10 min at 37°C and 5% CO2 prior to stimulation. Sytox Green fluorescence was measured at indicated time points at 485/535 nm in a Mithras LB940 (Berthold Technologies) or in a CLARIOstar plate reader (BMG Labtech).

In data set [2] the test system is neutrophils. As to the kind of experiment: Plasma membrane disruption by lactate dehydrogenase (LDH) release. As to conditions: 10 min, 37°C, relative to Triton X-100-treated samples, two independent experiments in triplicates. The format is cell-based, human. On the procedure: Neutrophils (2 × 10^6 cells/ml) were incubated with PSMα2 or hexadecyltrimethylammonium bromide (CTAB, Sigma) for 10 min at 37°C. LDH was measured in the supernatants with cytotoxicity detection kit (LDH, Roche) as described in Ref. ([25]).

For data set [3], the system named is neutrophils. As to the kind of experiment: Nuclear membrane integrity (SUN2 staining, confocal microscopy). The format is cell-based, human. Conditions: SUN2 and DNA staining, three independent experiments. On the procedure:
Neutrophils or human A375 melanoma cells (2.5 × 10^5 cells/well) were suspended in RPMI and added to poly-lysine-coated coverslips. After stimulation with PMA (50 nM; Sigma-Aldrich) or PSMα (indicated concentrations), the cells were incubated at 37°C in the presence of 5% CO2 or at 4°C for indicated time. To visualize NETs, samples were fixed in 4% paraformaldehyde for 30 min at room temperature and stained with antibodies against MPO (DAKO), NE (Calbiochem), or Histone-1 (Acris) followed by secondary antibody staining. Finally, the coverslips were incubated with DAPI (1 μg/ml) for 5 min and then mounted in ProLong Gold antifade (Molecular Probes). For nuclear morphology experiments, neutrophils were incubated with PSMα2 for 10 min or with PMA for 30 min or 2 h, the cells were fixed on ice with 4% paraformaldehyde, permeabilized with cold acetone and methanol (1:1) for 5 min, and stained with SUN2 antibody (Abcam) followed by secondary antibody staining. To visualize microbes in the NETs, we used green fluorescent protein (GFP)-expressing Candida albicans, strain CAI4 containing a C. albicans-specific pENO1-GFP-CyC1t plasmid ([26]), or S. aureus, strain RN4220 containing the pCN-GFP plasmid that was a kind gift from Dr. Maria Lerm (Linköping University, Sweden). […]

In data set [4] the test system is neutrophils. Conditions: cited from earlier work. From the text: Further, we have shown that enzymatic conversion of ROS by MPO inside granules is a prerequisite for PMA-induced NET formation ([10]). We thus investigated whether MPO was required for PSMα-induced NET formation by using neutrophils from a completely MPO-deficient donor [previously described in Ref. ([10])] that was sampled at two occasions (with nearly identical results). Neutrophils fro ...

A further data set has as its system A375 melanoma cells. As to the kind of experiment: Microscopic visualization of melanoma cells (DAPI). It counts as cell-based, human. Conditions: PSMα2 or PSMα3 2.5 μM for 1 h, PMA 50 nM for 3 h, three independent experiments. The protocol:
The human melanoma cell line A375 was a kind gift from Professor Jonas A. Nilsson (Sahlgrenska Cancer Center, University of Gothenburg, Sweden). The cells were cultured in DMEM with 10% FCS, 100 U/ml penicillin, and 100 μg/ml streptomycin at 37°C and 5% CO2. Before being used experimentally, the cells were detached from the flasks’ surface by incubation with 0.25% trypsin in 37°C for 10 min followed by washing and resuspension in RPMI culture media.
Neutrophils or human A375 melanoma cells (2.5 × 10^5 cells/well) were suspended in RPMI and added to poly-lysine-coated coverslips. After stimulation with PMA (50 nM; Sigma-Aldrich) or PSMα (indicated concentrations), the cells were incubated at 37°C in the presence of 5% CO2 or at 4°C for indicated time. To visualize NETs, samples were fixed in 4% paraformaldehyde for 30 min at room temperature and stained with antibodies against MPO (DAKO), NE (Calbiochem), or Histone-1 (Acris) followed by secondary antibody staining. Finally, the coverslips were incubated with DAPI (1 μg/ml) for 5 min and then mounted in ProLong Gold antifade (Molecular Probes). […]

The subject of data set [5] is Formyl peptide receptor (FPR) 1 / FPR2. Conditions: receptor through which the peptide activates neutrophils; dash = inactive; cited from earlier work. From the text:
Table 1 Peptide sequences and receptor preferences of PSMα2. | column: Receptor preference^a

For `CCCCCCCCCCCCCCCC[N+](C)(C)C` [CTAB, hexadecyltrimethylammonium bromide], in the data set on neutrophils [1] (10 min, two independent experiments in triplicates), the “NET formation (Sytox Green fluorescence) after detergent treatment” value is listed as “did not cause NET formation”. Further, in the data set with neutrophils [2], the LDH release result is “close to maximal”.
With `c1ccc2c(c1)[I+]c1ccccc1-2` [DPI, diphenyleneiodonium chloride], the “Effect of NADPH oxidase inhibitor on PMA-induced NET formation” value in the data set with neutrophils [1] (PMA 50 nM, DPI 10 μM, three independent experiments) is “potently inhibited”. The “Effect of NADPH oxidase inhibitor on PSMα-induced NETs” value with neutrophils [1] (PSMα2 2.5 μM, DPI 10 μM, three independent experiments) is “without effect”.
As for `CCCCCCCCCCCCCC(=O)O[C@@H]1[C@@H](C)[C@@]2(O)[C@@H](C=C(CO)C[C@]3(O)C(=O)C(C)=C[C@@H]23)[C@@H]2C(C)(C)[C@]12OC(C)=O` [PMA, phorbol myristate acetate], the “Stimulation time at which disruption of nuclear membranes was first observed” value in the data set on neutrophils [3] turned out to be 2 h. Further, the “Time to increase in Sytox green fluorescence” value in the data set with neutrophils [1] (PMA 50 nM, 37°C, three independent experiments) is 3 h. The “NET formation by neutrophils from a completely MPO-deficient donor in response to PMA” value with neutrophils [4] is “unable to form NETs”. Moreover, the “Extracellular DNA release from melanoma cells” value with A375 melanoma cells is reported as “did not induce any DNA expulsion”.
For the compound “f-MGIIA [1–5, shorter PSMα2 variant, amino acids 1–5]”, the Receptor preference result in data set [5] was “Formyl peptide receptor (FPR) 1”.
Consider “f-MGIIAGIIKF [1–10, shorter PSMα2 variant, amino acids 1–10]”, for which, in data set [5], the Receptor preference result is “FPR1”.
As to “f-MGIIAGIIKFIK [1–12, shorter PSMα2 variant, amino acids 1–12]”, the Receptor preference result in data set [5] was “FPR1/FPR2”.
As for “f-MGIIAGIIKFIKGLIE [1–16, shorter PSMα2 variant, amino acids 1–16]”, the Receptor preference entry in data set [5] is “FPR2”.
